Some test systems named below: A549 NSCLC; COLO 205 colon; HCT-116 colon; HOP-62 NSCLC; OVCAR-5 ovarian; RPMI-8226 leukemia; SK-OV-3 ovarian; SW-620 colon; EKVX NSCLC.
Assay in all cases: NCI-60 cell line screen, 48 h

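1) Cells in 96-well plates. 2) Compound, 48 h, 5 concentrations. 3) Linear interpolation between surrounding doses. 4) Unreached endpoint = highest concentration. GI50 is the concentration that inhibits growth by half. TGI marks complete inhibition of growth.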 Where a SMILES comes first, the peptide text is derived from it. The star is where a group is joined. Boc = CC(C)(C)OC(=O)*

`Cc1ccc(S(=O)(=O)NC(=O)NCCC(=O)O)cc1`: the TGI in the assay on A549 NSCLC, in the assay with COLO 205 colon, in the assay with HCT-116 colon, in the assay with HOP-62 NSCLC, in the assay on OVCAR-5 ovarian and in the assay on RPMI-8226 leukemia was more than 100 µM in each case. In addition, the TGI with SK-OV-3 ovarian and in the assay on SW-620 colon was more than 100 µM each time.

As for `S=c1nc2[nH]c3ccc(Br)cc3c2n[nH]1`, the TGI with A549 NSCLC, in the assay with COLO 205 colon, with EKVX NSCLC, in the assay with HCT-116 colon, in the assay with OVCAR-5 ovarian and with RPMI-8226 leukemia was more than 100 µM each time. Besides, the TGI in the assay on SK-OV-3 ovarian and with SW-620 colon was more than 100 µM throughout.

`Cc1cccc2nc3cccc(C(=O)NCCC[N+](C)(CCCNC(=O)c4cccc5nc6cccc(C)c6nc45)Cc4c([N+](=O)[O-])ncn4C)c3nc12`: the GI50 in the assay with A549 NSCLC is 8.19 µM; in the assay on COLO 205 colon, 184 µM; in the assay with EKVX NSCLC, 443 µM; in the assay on SK-OV-3 ovarian it was more than 1100 µM; with SW-620 colon it was 49.3 µM. For the same molecule, the TGI was more than 1100 µM in the assay on A549 NSCLC; more than 1100 µM in the assay with COLO 205 colon; more than 1100 µM in the assay with EKVX NSCLC; more than 1100 µM with HCT-116 colon; 0.521 µM with RPMI-8226 leukemia; more than 1100 µM in the assay with SK-OV-3 ovarian. This molecule registered a TGI with SW-620 colon of more than 1100 µM.

Take `COC(=O)C(Cc1c[nH]c2ccccc12)NC(=O)C(Cc1c[nH]c2ccccc12)NC(=O)C(Cc1c[nH]c2ccccc12)NC(=O)C(Cc1c[nH]c2ccccc12)NC(=O)OC(C)(C)C` (configuration not stated) (Boc-WWWW-OMe; configuration not given here): the TGI is more than 100 µM in the assay on A549 NSCLC; 44.2 µM with HCT-116 colon; 67 µM in the assay with HOP-62 NSCLC; more than 100 µM in the assay with OVCAR-5 ovarian; 26 µM in the assay on RPMI-8226 leukemia; 62.8 µM in the assay with SW-620 colon.

Take `CCOC(=O)c1c2c(n3ccc(NC(=O)OC(C)(C)C)cc13)C(=O)c1ncccc1C2=O`: the GI50 with A549 NSCLC was 0.186 µM; with COLO 205 colon it was 0.352 µM; in the assay with EKVX NSCLC it was 0.168 µM; in the assay with HOP-62 NSCLC, 0.143 µM; in the assay with OVCAR-5 ovarian, 0.0971 µM; in the assay on RPMI-8226 leukemia, 0.387 µM. Also, the GI50 in the assay with SK-OV-3 ovarian is 0.236 µM. The TGI with A549 NSCLC is 1.25 µM; with COLO 205 colon, 1.56 µM; in the assay with EKVX NSCLC it was 2.03 µM; in the assay on HOP-62 NSCLC it was 0.7 µM; in the assay on OVCAR-5 ovarian, 1.65 µM; in the assay with RPMI-8226 leukemia it was 3.16 µM. Moreover, the TGI in the assay with SK-OV-3 ovarian is 1.48 µM.

With `O=C(NNc1cn[nH]c(=O)c1Cl)/C(=C/c1ccc2c(c1)OCO2)NC(=O)c1ccccc1`, the TGI in the assay with A549 NSCLC, with COLO 205 colon, with EKVX NSCLC, in the assay with HCT-116 colon, with HOP-62 NSCLC and with OVCAR-5 ovarian was more than 100 µM throughout. Further, the TGI with SK-OV-3 ovarian and in the assay on SW-620 colon was more than 100 µM in each case.

As for `Cc1ccc(-n2c(O)c3c(N)n[nH]c3c(C#N)c2=O)cc1`, the TGI in the assay on A549 NSCLC, in the assay with COLO 205 colon, in the assay on EKVX NSCLC, with HCT-116 colon, in the assay with OVCAR-5 ovarian and in the assay on RPMI-8226 leukemia was more than 100 µM each time. Besides, the TGI in the assay on SK-OV-3 ovarian and in the assay on SW-620 colon was more than 100 µM in each case.

In the case of `COc1ccccc1NC(=S)N/N=C(/C)c1ccccn1`, the TGI was more than 55.3 µM with A549 NSCLC; more than 100 µM in the assay on EKVX NSCLC; 13.8 µM in the assay with HCT-116 colon; 36.7 µM in the assay on HOP-62 NSCLC; more than 100 µM in the assay with OVCAR-5 ovarian; more than 100 µM with RPMI-8226 leukemia. Also, the TGI is more than 89.2 µM in the assay on SK-OV-3 ovarian and more than 100 µM in the assay with SW-620 colon.

Take `O=c1[nH]c(=O)n(COCc2ccccc2)c2ccc([N+](=O)[O-])cc12`: the TGI in the assay on A549 NSCLC, in the assay with COLO 205 colon, in the assay on EKVX NSCLC, with HCT-116 colon, in the assay on OVCAR-5 ovarian and with SK-OV-3 ovarian was more than 100 µM in each case. Further, the TGI in the assay on SW-620 colon is more than 100 µM.

On to `CC1(C)[C@@H](Cn2cnc3c(=O)[nH]c(N)nc32)CC[C@@]1(C)CO`, for which the TGI with A549 NSCLC, in the assay with EKVX NSCLC, in the assay with HCT-116 colon, with HOP-62 NSCLC, with OVCAR-5 ovarian and with RPMI-8226 leukemia was more than 100 µM throughout. The TGI in the assay with SK-OV-3 ovarian and with SW-620 colon was more than 100 µM each time.

Turning to `COc1c(OC)c(O)c2c(=O)c(OC)c(-c3ccc4c(c3)OCO4)oc2c1O`, the TGI in the assay on A549 NSCLC, in the assay with COLO 205 colon, with EKVX NSCLC, in the assay on HCT-116 colon, in the assay on HOP-62 NSCLC and with OVCAR-5 ovarian was more than 100 µM throughout. Also, the TGI in the assay with SK-OV-3 ovarian and in the assay with SW-620 colon was more than 100 µM each time.

As to `C=C(CC(=O)Nc1ccc(C(=O)OC)o1)C(=O)OC`, the TGI in the assay on A549 NSCLC is 35.8 µM; in the assay with COLO 205 colon it was 41.1 µM; in the assay with EKVX NSCLC, 45 µM; in the assay with HCT-116 colon it was 76.7 µM; in the assay with HOP-62 NSCLC, more than 100 µM; in the assay on OVCAR-5 ovarian it was 35.5 µM. The results for the TGI in the assay with SK-OV-3 ovarian and in the assay on SW-620 colon were 86.3 µM and 53.5 µM, respectively.

For `COc1cc(/C=C2\N=C(c3ccccc3)N(/N=C3\C(=O)Nc4ccccc43)C2=O)cc(OC)c1OC`, the TGI in the assay on A549 NSCLC, in the assay on COLO 205 colon, with EKVX NSCLC, with HCT-116 colon, with HOP-62 NSCLC and with OVCAR-5 ovarian was more than 100 µM each time. Also, the TGI with SK-OV-3 ovarian and in the assay on SW-620 colon was more than 100 µM in each case.

For the molecule `CC(=O)NC1C(OCc2ccccc2)OC(CO)C(O)C1OCC(=O)NC(C)C(=O)NC(CCC(=O)NCCCCCNc1c2ccccc2nc2cccc([N+](=O)[O-])c12)C(N)=O` (configuration not stated), the TGI is 0.00142 µM in the assay with A549 NSCLC; less than 0.0001 µM in the assay with COLO 205 colon; less than 0.0001 µM with HCT-116 colon; less than 0.0001 µM in the assay with RPMI-8226 leukemia; 0.000315 µM in the assay with SW-620 colon.

As for `Nc1ccccc1NC(=O)CCCCCCC(=O)Nc1ccc2c(c1)/C(=C/c1ccc[nH]1)C(=O)N2`, the GI50 was more than 100 µM in the assay on A549 NSCLC; 43.8 µM in the assay on COLO 205 colon; 6.13 µM with HCT-116 colon; more than 100 µM in the assay with OVCAR-5 ovarian; 2.47 µM in the assay with RPMI-8226 leukemia; 6.72 µM in the assay on SK-OV-3 ovarian. For the same molecule, in the assay on SW-620 colon, the GI50 was 40.8 µM. Also, the TGI with A549 NSCLC, in the assay with COLO 205 colon, with HCT-116 colon, in the assay on OVCAR-5 ovarian, in the assay with RPMI-8226 leukemia and with SK-OV-3 ovarian was more than 100 µM in each case. In the assay with SW-620 colon, this molecule displayed a TGI of more than 100 µM.

Regarding `O=C1CSC2=NCC3(NN12)c1ccccc1-c1ccccc13`, the TGI with A549 NSCLC, with COLO 205 colon, in the assay with EKVX NSCLC, with HCT-116 colon, in the assay on HOP-62 NSCLC and with RPMI-8226 leukemia was more than 10 µM in each case. In addition, the TGI with SK-OV-3 ovarian and in the assay with SW-620 colon was more than 10 µM each time.

In the case of `CN(C)CCOC(=O)c1ccc(N)cc1`, the TGI was more than 100 µM in the assay with A549 NSCLC; more than 100 µM in the assay with COLO 205 colon; more than 100 µM with HCT-116 colon; more than 100 µM in the assay with HOP-62 NSCLC; more than 100 µM in the assay with OVCAR-5 ovarian; 75.2 µM in the assay on RPMI-8226 leukemia. Besides, the TGI in the assay on SK-OV-3 ovarian and in the assay with SW-620 colon was more than 100 µM in each case.

With `Cn1c(-c2ccc[se]2)ccc1-c1ccc(CO)[se]1`, the TGI is more than 100 µM in the assay on A549 NSCLC; 6.01 µM in the assay with COLO 205 colon; more than 100 µM in the assay with EKVX NSCLC; more than 100 µM with HCT-116 colon; more than 100 µM with RPMI-8226 leukemia; 42.5 µM in the assay with SK-OV-3 ovarian. In addition, the TGI with SW-620 colon is more than 100 µM.

As for `CCN(CC)C(=S)N/N=C/c1ccccn1`, the TGI in the assay with A549 NSCLC is 1.39 µM; with COLO 205 colon it was more than 53.9 µM; in the assay with EKVX NSCLC, more than 100 µM; in the assay on OVCAR-5 ovarian, more than 100 µM; with RPMI-8226 leukemia, more than 100 µM; in the assay with SW-620 colon it was more than 100 µM.

For the molecule `Fc1ccc(C2CC(c3cccc(Nc4ccncc4)c3)=NN2c2cc(Cl)cc(Cl)c2)cc1` (configuration not stated), the GI50 with COLO 205 colon was 2.21 µM; with EKVX NSCLC, 1.71 µM; with HCT-116 colon it was 1.66 µM; with OVCAR-5 ovarian, 1.73 µM; in the assay on SK-OV-3 ovarian, 1.79 µM; in the assay on SW-620 colon, 1.75 µM. In addition, the TGI was found to be 4.81 µM in the assay with COLO 205 colon; 3.38 µM with EKVX NSCLC; 3.15 µM in the assay with HCT-116 colon; 3.16 µM in the assay with OVCAR-5 ovarian; 3.54 µM in the assay on SK-OV-3 ovarian; 3.29 µM in the assay with SW-620 colon.

For `O=C1OC2(C(F)(F)F)Oc3ccccc3CN2C12CCCCC2` (configuration not stated), the TGI is more than 100 µM in the assay on A549 NSCLC; 34.7 µM with COLO 205 colon; more than 100 µM in the assay on EKVX NSCLC; 82.8 µM in the assay on HCT-116 colon; 91.9 µM in the assay on HOP-62 NSCLC; more than 100 µM with OVCAR-5 ovarian. For the same molecule, the TGI with SK-OV-3 ovarian was 81.7 µM; with SW-620 colon, more than 100 µM.

Take `O=C(NC1(C(=O)NNc2nnc(-c3ccccc3)c(-c3ccccc3)n2)C(c2ccccc2)C(c2ccccc2)=NN1c1ccccc1)c1ccccc1` (configuration not stated): the TGI in the assay with A549 NSCLC, in the assay on COLO 205 colon, in the assay on EKVX NSCLC, with HCT-116 colon, in the assay on HOP-62 NSCLC and with OVCAR-5 ovarian was more than 100 µM each time. In addition, the TGI in the assay with SK-OV-3 ovarian and with SW-620 colon was more than 100 µM in each case.

These data come from PubChem BioAssay (NCI).
